From ChEMBL document CHEMBL5550189, “Discovery of GS-7682, a Novel 4'-Cyano-Modified C-Nucleoside Prodrug with Broad Activity against Pneumo- and Picornaviruses and Efficacy in RSV-Infected African Green Monkeys” (J Med Chem, 2024)
pEC50, pIC50: −log10 of the molar value. Active and inactive are the calls of the source. The calls are words filed in the database; no cut-off is given here.

Tests used:
[1] = Drug metabolism in African green monkey assessed as AUC (0 to 24 hrs) of (2R,3S,4R,5S)-5-(4-aminopyrrolo[2,1-f][1,2,4]triazin-7-yl)-3,4-dihydroxy-2-(hydroxymethyl)tetrahydrofuran-2-carbonitrile metabolite at lung-deposited dose of 5.9 mg/kg, IT measured after 24 hrs by LC-MS/MS analysis; assay type: ADME, organism-based; settings: chlorocebus aethiops, in vivo, other
[2] = system: Respiratory syncytial virus; assay: Antiviral activity against RSV A2 infected in human airway epithelium transwell culture assessed as decrease in viral RNA level by measuring log10 reduction in median viral load at 0.01 uM pretreated at apical side for 3 hrs followed by compound washout and subsequent viral infection at apical side for 3 hrs followed by removal of virus and recurrent addition of compound on day 1 and 2 at basolateral side measured on day 3 by RT-qPCR analysis; assay type: functional; settings: time 75 hrs
[3] = system: Respiratory syncytial virus; assay: Antiviral activity against RSV A2 infected in human airway epithelium transwell culture assessed as decrease in viral RNA level by measuring log10 reduction in median viral load at 0.01 uM pretreated at apical side for 3 hrs followed by compound washout and subsequent viral infection at apical side for 3 hrs followed by removal of virus and recurrent addition of compound on day 0 at apical side measured on day 3 by RT-qPCR analysis; assay type: functional; settings: time 75 hrs
[4] = Prodrug conversion in D-HBE-As cells assessed as ((2R,3S,4R,5S)-5-(4-aminopyrrolo[2,1-f][1,2,4]triazin-7-yl)-2-cyano-3,4-dihydroxytetrahydrofuran-2-yl)methyl tetrahydrogen triphosphate formation measured per million cells at 1 uM measured after 48 hrs by LC-MS/MS analysis; assay type: ADME, cell-based; settings: human
[5] = Half life in Cynomolgous monkey at 5 mg/kg, iv measured after 30 mins by LC-MS/MS analysis; assay type: ADME, organism-based, Macaca fascicularis; settings: cynomolgus monkey, in vivo
[6] = system: Respiratory syncytial virus; assay: Antiviral activity against RSV A2 infected in D-HBE-As cells assessed as inhibition of intracellular virus replication; assay type: functional, organism-based; settings: human respiratory syncytial virus
[7] = Cytotoxicity against human MT4 cells incubated for 5 days by Cell Titer Glo assay; assay type: toxicity, cell-based; settings: time 5 day
[8] = Drug concentration in lung of African green monkey at lung-deposited dose of 5.9 mg/kg, IT measured after 24 hrs by LC-MS/MS analysis; assay type: ADME, organism-based; settings: chlorocebus aethiops, in vivo, other
[9] = system: Respiratory syncytial virus; assay: Antiviral activity against RSV A2 infected in Normal human bronchial epithelial cells incubated for 3 days by ONE-Glo luciferase assay; assay type: functional, organism-based; settings: A2, Epithelial cell, 72 h
[10] = Cmax in African green monkey at lung-deposited dose of 5.9 mg/kg, IT measured after 24 hrs by LC-MS/MS analysis; assay type: ADME, organism-based; settings: chlorocebus aethiops, in vivo
[11] = system: Respiratory syncytial virus; assay: Antiviral activity against RSV A2 infected in H1-HeLa cells assessed as inhibition of intracellular virus replication; assay type: functional, organism-based; settings: human respiratory syncytial virus
[12] = AUC (0 to 24 hrs) in Cynomolgous monkey at lung-deposited dose of 4 mg/kg, IT measured after 24 hrs by LC-MS/MS analysis; assay type: ADME, organism-based, Macaca fascicularis; settings: cynomolgus monkey, in vivo
[13] = AUC (0 to 24 hrs) in Cynomolgous monkey at 5 mg/kg, iv measured after 30 mins by LC-MS/MS analysis; assay type: ADME, organism-based, Macaca fascicularis; settings: cynomolgus monkey, in vivo
[14] = Drug metabolism in Cynomolgous monkey assessed as Cmax of (2R,3S,4R,5S)-5-(4-aminopyrrolo[2,1-f][1,2,4]triazin-7-yl)-3,4-dihydroxy-2-(hydroxymethyl)tetrahydrofuran-2-carbonitrile metabolite at lung-deposited dose of 4 mg/kg, IT measured after 24 hrs by LC-MS/MS analysis; assay type: ADME, organism-based, Macaca fascicularis; settings: cynomolgus monkey, in vivo, other
[15] = Selectivity index, ratio of CC50 for Normal human bronchial epithelial cells to EC50 for RSV A2 infected in Normal human bronchial epithelial cells; assay type: toxicity; settings: read-out: Ratio CC50/EC50
[16] = Cytotoxicity against Normal human bronchial epithelial cells; assay type: toxicity, cell-based, Epithelial cell
Enterovirus A71 = assay: Anti-viral activity against EV-71 (H) infected in human RD cells by MTS assay; assay type: functional, organism-based; settings: Enterovirus A
[17] = Drug metabolism in Cynomolgous monkey assessed as Cmax of (2R,3S,4R,5S)-5-(4-aminopyrrolo[2,1-f][1,2,4]triazin-7-yl)-3,4-dihydroxy-2-(hydroxymethyl)tetrahydrofuran-2-carbonitrile metabolite at 5 mg/kg, iv measured after 30 mins by LC-MS/MS analysis; assay type: ADME, organism-based, Macaca fascicularis; settings: cynomolgus monkey, in vivo, 0.5 h
[18] = system: Respiratory syncytial virus; assay: Antiviral activity against RSV infected in African green monkey assessed as reduction in viral load in BAL at lung-deposited dose of 1.6 to 7.6 mg/kg, IT qd for 6 days measured on day 11 by RT-qPCR analysis; assay type: functional, organism-based; settings: dose 1.6-7.6 mg/kg, time 11.0 day
[19] = Drug metabolism in Cynomolgous monkey assessed as AUC (0 to 24 hrs) of (2R,3S,4R,5S)-5-(4-aminopyrrolo[2,1-f][1,2,4]triazin-7-yl)-3,4-dihydroxy-2-(hydroxymethyl)tetrahydrofuran-2-carbonitrile metabolite at 5 mg/kg, iv measured after 30 mins by LC-MS/MS analysis; assay type: ADME, organism-based, Macaca fascicularis; settings: cynomolgus monkey, in vivo, 0.5 h
[20] = system: Respiratory syncytial virus; assay: Antiviral activity against RSV A2 infected in human HEp-2 cells incubated for 4 days by Cell Titer Glo assay; assay type: functional, organism-based; settings: A2, HEp-2, 96 h
Human metapneumovirus = assay: Anti-viral activity against hMPV CAN99-81 (A1 genotype) infected in rhesus monkey LLC-MK2 cells incubated for 90 mins; assay type: functional, organism-based; settings: LLC-MK2, 1.5 h
[21] = system: Respiratory syncytial virus; assay: Antiviral activity against RSV A2 infected in human airway epithelium transwell culture assessed as decrease in viral RNA level by measuring log10 reduction in median viral load at 0.05 uM pretreated at apical side for 3 hrs followed by compound washout and subsequent viral infection at apical side for 3 hrs followed by removal of virus and recurrent addition of compound on day 0 at apical side measured on day 3 by RT-qPCR analysis; assay type: functional; settings: time 75 hrs
[22] = system: Respiratory syncytial virus; assay: Antiviral activity against RSV infected in African green monkey assessed as reduction in viral replication in BAL at lung-deposited dose of 1.6 to 7.6 mg/kg, IT qd for 6 days measured for 15 days by RT-qPCR analysis relative to control; assay type: functional; design: scale not given: the % may be the effect or the level left; settings: dose 1.6-7.6 mg/kg, time 15 day, at 1.6 to 7.6 mg/kg
[23] = system: Respiratory syncytial virus; assay: Antiviral activity against RSV A2 infected in human airway epithelium transwell culture assessed as decrease in viral RNA level by measuring log10 reduction in median viral load at 0.25 uM pretreated at apical side for 3 hrs followed by compound washout and subsequent viral infection at apical side for 3 hrs followed by removal of virus and recurrent addition of compound on day 0 at apical side measured on day 3 by RT-qPCR analysis; assay type: functional; settings: time 75 hrs
[24] = system: Respiratory syncytial virus; assay: Antiviral activity against RSV infected in African green monkey assessed as log10 reduction in viral load in BAL at lung-deposited dose of 1.6 to 7.6 mg/kg, IT qd measured after 5 days by RT-qPCR analysis; assay type: functional; settings: dose 1.6-7.6 mg/kg, time 5 day
[25] = Prodrug conversion in Normal human bronchial epithelial cells assessed as ((2R,3S,4R,5S)-5-(4-aminopyrrolo[2,1-f][1,2,4]triazin-7-yl)-2-cyano-3,4-dihydroxytetrahydrofuran-2-yl)methyl tetrahydrogen triphosphate formation measured per million cells at 10 uM incubated for 2 hrs by LC-MS/MS analysis; assay type: ADME, cell-based; settings: epithelial cell
[26] = Cytotoxicity against rhesus monkey LLC-MK2 cells incubated for 5 days by MTS assay; assay type: toxicity, cell-based, Macaca mulatta; settings: time 5 day

COC(=O)[C@H](C)N[P@](=O)(OC[C@@]1(C#N)O[C@@H](c2ccc3c(N)ncnn23)[C@H](OC(=O)C(C)C)[C@@H]1OC(=O)C(C)C)Oc1ccccc1
AUC [1]: 3.39 µM·h
Activity [2]: 0.2 log10/ml
Activity [3]: 0.2 log10/ml
Drug metabolism [4]: 113.3 pM
half-life [5]: 20.4 min
pIC50 [6]: 7.01
CC50 at 120 h [7]: 3240 nM
Drug uptake [8]: 24.6 nmol
pEC50 [9]: 7.82
Cmax [10]: 610 nM
pIC50 [11]: 7.08
AUC(0-t) at 24 h [12]: 1.86 µM·h
AUC(0-t) at 0.5 h [13]: 0.962 µM·h
Cmax [14]: 140 nM
selectivity ratio [15]: 640
CC50 [16]: 8300 nM
pEC50 (Enterovirus A71): 7.08
Cmax [17]: 961 nM
Activity [18]: Active
AUC [19]: 6.03 µM·h
pEC50 [20]: 7.34
pEC50 (Human metapneumovirus): 6.68
Activity [21]: 0.2 log10/ml
Activity [22]: >99.99%
Activity [23]: 1.9 log10/ml
Activity [24]: 3.6 log10/ml
Drug metabolism [25]: 916 pM
CC50 at 120 h [26]: > 2000 nM
